Assay type in all cases: cell-based
One assay has as its target T1, human TLR7 (Homo sapiens, UniProt Q9NYK1).
T1 construct: host or cells: HEK-Blue cells
T1 sequence (Q9NYK1 27-1049): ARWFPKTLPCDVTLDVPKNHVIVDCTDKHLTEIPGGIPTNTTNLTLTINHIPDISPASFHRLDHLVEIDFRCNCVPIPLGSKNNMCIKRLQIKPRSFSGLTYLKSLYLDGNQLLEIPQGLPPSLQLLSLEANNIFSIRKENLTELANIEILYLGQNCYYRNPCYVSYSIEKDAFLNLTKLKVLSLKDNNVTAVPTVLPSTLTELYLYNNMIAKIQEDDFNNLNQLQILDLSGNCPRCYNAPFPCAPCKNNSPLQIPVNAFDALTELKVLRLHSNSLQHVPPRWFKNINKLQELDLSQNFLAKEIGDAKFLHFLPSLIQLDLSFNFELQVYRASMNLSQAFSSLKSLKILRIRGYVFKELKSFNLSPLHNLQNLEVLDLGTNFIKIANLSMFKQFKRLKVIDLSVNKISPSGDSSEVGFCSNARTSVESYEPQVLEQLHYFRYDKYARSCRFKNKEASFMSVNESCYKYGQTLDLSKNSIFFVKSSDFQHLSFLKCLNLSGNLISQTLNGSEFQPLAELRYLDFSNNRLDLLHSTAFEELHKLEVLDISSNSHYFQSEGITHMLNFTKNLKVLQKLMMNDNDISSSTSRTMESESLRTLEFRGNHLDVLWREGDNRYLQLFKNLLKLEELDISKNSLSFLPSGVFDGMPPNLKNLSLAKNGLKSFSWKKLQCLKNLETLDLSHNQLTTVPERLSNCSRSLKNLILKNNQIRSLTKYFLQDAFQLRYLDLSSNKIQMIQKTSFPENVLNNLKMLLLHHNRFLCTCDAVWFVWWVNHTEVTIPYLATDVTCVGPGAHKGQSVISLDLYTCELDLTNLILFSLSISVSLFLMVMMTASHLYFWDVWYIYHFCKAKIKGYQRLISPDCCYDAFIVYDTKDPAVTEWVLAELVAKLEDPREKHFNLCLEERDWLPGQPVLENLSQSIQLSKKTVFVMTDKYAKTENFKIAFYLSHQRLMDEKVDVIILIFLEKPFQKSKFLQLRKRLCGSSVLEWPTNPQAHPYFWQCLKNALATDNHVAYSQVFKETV
In words: TLR7 inhibition reporter assay (HEK-Blue SEAP reporter). Particulars: HEK-Blue cells overexpressing human TLR7; gardiquimod 7.5 μM; 22 hour incubation. The gist of the method: (§1)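 Compound treatment: 30 min, RT, 0.05 nM–50 μM final. Agonist: TLR7 gardiquimod 7.5 μM; TLR8 R848 15.9 μM; TLR9 ODN2006 5 nM. Incubation 22 h, 37 °C, 5% CO2. Readout SEAP, HEK-Blue Detection.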
For orientation: Reporter assays use an easily measured gene product as a stand-in for the process of interest.

A further assay concerns the target T2, human TLR9 (Homo sapiens, UniProt Q9NR96).
T2 construct: host or cells: HEK-Blue cells
T2 sequence (Q9NR96 26-1032): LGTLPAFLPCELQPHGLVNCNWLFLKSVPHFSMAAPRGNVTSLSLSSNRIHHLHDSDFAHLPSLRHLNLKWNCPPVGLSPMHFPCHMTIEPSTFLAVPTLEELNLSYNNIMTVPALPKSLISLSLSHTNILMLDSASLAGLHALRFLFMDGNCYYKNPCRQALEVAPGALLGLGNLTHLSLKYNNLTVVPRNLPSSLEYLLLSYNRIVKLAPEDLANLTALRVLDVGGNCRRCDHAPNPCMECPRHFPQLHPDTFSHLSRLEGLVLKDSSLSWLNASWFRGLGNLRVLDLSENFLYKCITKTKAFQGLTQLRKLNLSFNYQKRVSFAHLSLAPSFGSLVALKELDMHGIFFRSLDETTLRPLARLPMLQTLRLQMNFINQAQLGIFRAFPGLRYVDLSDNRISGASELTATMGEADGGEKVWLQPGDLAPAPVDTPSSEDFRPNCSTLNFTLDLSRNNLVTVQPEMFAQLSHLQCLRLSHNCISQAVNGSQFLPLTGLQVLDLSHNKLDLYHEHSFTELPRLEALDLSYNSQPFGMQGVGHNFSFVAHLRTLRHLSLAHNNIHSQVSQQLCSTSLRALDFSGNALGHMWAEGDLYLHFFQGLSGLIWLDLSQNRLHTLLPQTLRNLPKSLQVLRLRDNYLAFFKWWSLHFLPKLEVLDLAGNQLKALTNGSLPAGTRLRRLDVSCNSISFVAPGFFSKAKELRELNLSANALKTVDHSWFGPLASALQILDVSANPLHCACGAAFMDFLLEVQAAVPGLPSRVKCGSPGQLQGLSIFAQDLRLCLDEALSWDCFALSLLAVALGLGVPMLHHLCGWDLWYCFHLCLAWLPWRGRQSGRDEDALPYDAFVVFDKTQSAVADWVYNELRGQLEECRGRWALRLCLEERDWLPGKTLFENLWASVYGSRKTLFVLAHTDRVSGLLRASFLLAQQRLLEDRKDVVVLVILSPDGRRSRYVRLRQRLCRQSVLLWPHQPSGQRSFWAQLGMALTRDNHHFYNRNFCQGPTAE
The experiment in a line: TLR9 inhibition reporter assay (HEK-Blue SEAP reporter). Particulars: HEK-Blue cells overexpressing human TLR9; ODN2006 5 nM; 22 hour incubation. The gist of the method:
as §1

Another assay has as its target T3, human TLR8 (Homo sapiens, UniProt Q9NR97).
T3 construct: host or cells: HEK-Blue cells
T3 sequence (Q9NR97 27-1041): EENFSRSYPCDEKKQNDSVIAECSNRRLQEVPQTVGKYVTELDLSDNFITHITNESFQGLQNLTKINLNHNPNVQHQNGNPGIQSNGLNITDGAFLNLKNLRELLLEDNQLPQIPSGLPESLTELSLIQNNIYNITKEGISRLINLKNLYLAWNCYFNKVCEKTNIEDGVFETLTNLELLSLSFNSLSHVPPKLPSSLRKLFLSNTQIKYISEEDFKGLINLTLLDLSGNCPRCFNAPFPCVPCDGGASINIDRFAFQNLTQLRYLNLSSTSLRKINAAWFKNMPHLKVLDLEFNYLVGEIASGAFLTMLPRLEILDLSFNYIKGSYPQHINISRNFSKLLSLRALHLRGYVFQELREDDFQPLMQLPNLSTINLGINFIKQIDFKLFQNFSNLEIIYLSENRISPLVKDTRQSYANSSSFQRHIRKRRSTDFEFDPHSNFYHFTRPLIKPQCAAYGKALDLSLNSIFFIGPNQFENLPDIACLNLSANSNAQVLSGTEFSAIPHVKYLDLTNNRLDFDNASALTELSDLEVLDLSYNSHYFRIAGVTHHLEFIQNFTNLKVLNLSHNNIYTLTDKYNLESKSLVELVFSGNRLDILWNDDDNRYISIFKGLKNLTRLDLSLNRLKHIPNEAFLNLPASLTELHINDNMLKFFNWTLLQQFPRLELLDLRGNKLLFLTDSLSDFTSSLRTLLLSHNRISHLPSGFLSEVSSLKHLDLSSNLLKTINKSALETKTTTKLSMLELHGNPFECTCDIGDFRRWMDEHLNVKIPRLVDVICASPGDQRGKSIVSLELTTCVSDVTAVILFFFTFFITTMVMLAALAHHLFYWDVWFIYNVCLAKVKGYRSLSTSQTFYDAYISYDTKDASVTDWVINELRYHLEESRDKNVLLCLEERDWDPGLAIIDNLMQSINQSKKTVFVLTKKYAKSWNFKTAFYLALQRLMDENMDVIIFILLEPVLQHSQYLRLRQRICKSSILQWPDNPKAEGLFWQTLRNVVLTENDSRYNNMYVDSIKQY
In words: TLR8 inhibition reporter assay (HEK-Blue SEAP reporter). Particulars: HEK-Blue cells overexpressing human TLR8; R848 15.9 μM; 22 hour incubation. On the procedure:
TLR7/8/9 Inhibition Reporter Assays
HEK-Blue™-cells (Invivogen) overexpressing human TLR7, TLR8 or TLR9 receptors were used for screening inhibitors of these receptors using an inducible SEAP (secreted embryonic alkaline phosphatase) reporter gene under the control of the IFN-β minimal promoter fused to five NF-κB and AP-1-binding sites. Briefly, cells are seeded into Greiner 384 well plates (15000 cells per well for TLR7, 20,000 for TLR8 and 25,000 for TLR9) and then treated with test compounds in DMSO to yield a final dose response concentration range of 0.05 nM-50 μM. After a 30 minute compound pre-treatment at room temperature, the cells are then stimulated with a TLR7 ligand (gardiquimod at a final concentration of 7.5 μM), TLR8 ligand (R848 at a final concentration of 15.9 μM) or TLR9 ligand (ODN2006 at a final concentration of 5 nM) to activate NF-κB and AP-1 which induce the production of SEAP. After a 22 hour incubation at 37° C., 5% CO2, SEAP levels are determined with the addition of HEK-Blue™ Detection reagent (Invivogen), a cell culture medium that allows for detection of SEAP, according to manufacturer's specifications. The percent inhibition is determined as the % reduction in the HEK-Blue signal present in wells treated with agonist plus DMSO alone compared to wells treated with a known inhibitor.

A word on the IC50: it is the concentration that gives 50% inhibition. Low readings indicate higher potency, high ones lower potency.

In the case of `CCc1c(-c2ccnc3[nH]ncc23)[nH]c2ccc(N3CCN(C4CCN(C(C)C)CC4)CC3)cc12` [Example 159, 4-(3-ethyl-5-(4-(1-isopropylpiperidin-4-yl)piperazin-1-yl)-1H-indol-2-yl)-1H-pyrazolo[3,4-b]pyridine], the concentration for half-maximal inhibition (IC50) came to 5640 nM against human TLR7, 684 nM on human TLR9 and 6010 nM on human TLR8.
Turning to `COc1ccc(-c2[nH]c3ccc(N4CCC(OC5CCN(C)CC5)CC4)cc3c2C(C)C)cc1OC` [Example 187, 2-(3,4-dimethoxyphenyl)-3-isopropyl-5-(4-((1-methylpiperidin-4-yl)oxy)piperidin-1-yl)-1H-indole], the half-inhibitory concentration (IC50) at human TLR7 turned out to be 83 nM; on human TLR9 it was 1450 nM; against human TLR8, 167 nM.
Consider `COc1ccc(-c2[nH]c3ccc(N4CC(N5CCCNCC5)C4)cc3c2C(C)C)cc1OC` [Example 29, 5-(3-(1,4-diazepan-1-yl)azetidin-1-yl)-2-(3,4-dimethoxyphenyl)-3-isopropyl-1H-indole], for which the concentration for half-maximal inhibition (IC50) on human TLR7 was 760 nM; against human TLR9 it was 3750 nM; at human TLR8, 27 nM.
For `CCc1c(-c2ccc(OC)c(OC)c2)[nH]c2ccc(N3CCN(C4CCN(C)CC4)CC3)cc12` [Example 154, 2-(3,4-dimethoxyphenyl)-3-ethyl-5-(4-(1-methylpiperidin-4-yl)piperazin-1-yl)-1H-indole] the same measures were 79 nM, 829 nM and 14 nM.
The corresponding values for `COc1ccc(-c2[nH]c3ccc(N4CCN(C5CCN(C(C)C)CC5)CC4)cc3c2C)cc1OC` [Example 164, 2-(3,4-dimethoxyphenyl)-5-(4-(1-isopropylpiperidin-4-yl)piperazin-1-yl)-3-methyl-1H-indole] are 7090 nM, 577 nM and greater than 50000 nM.
For `CCc1c(-c2ccc(OC)c(OC)c2)[nH]c2ccc(N3CCC(OC4CCN(C(C)C)CC4)CC3)cc12` [Example 191, 2-(3,4-dimethoxyphenyl)-3-ethyl-5-(4-((1-isopropylpiperidin-4-yl)oxy)piperidin-1-yl)-1H-indole] the same measures were 87 nM, 836 nM and 66 nM.
As to `CC(C)c1c(-c2ccnc3[nH]ncc23)[nH]c2ccc(NC(=O)[C@@H]3CCNC3)cc12` [Example 9, (R)—N-(3-isopropyl-2-(1H-pyrazolo[3,4-b]pyridin-4-yl)-1H-indol-5-yl)pyrrolidine-3-carboxamide], the IC50 was found to be 817 nM at human TLR7, 5660 nM against human TLR9 and 70 nM at human TLR8.
On to `COc1ccc(-c2[nH]c3ccc(NC4CCC(N5CCN(C6CCN(C)CC6)CC5)CC4)cc3c2C(C)C)cc1OC` (stereo not drawn) [Example 61, 2-(3,4-dimethoxyphenyl)-3-isopropyl-N-(4-(4-(1-methylpiperidin-4-yl)piperazin-1-yl)cyclohexyl)-1H-indol-5-amine], for which the IC50 on human TLR7 worked out at 144 nM; at human TLR9, 555 nM; at human TLR8, 174 nM.
Regarding `Cc1c(-c2ccnc3[nH]ccc23)[nH]c2ccc(N3CCN(C4CCN(CC(C)C)CC4)CC3)cc12` [Example 158, 4-(5-(4-(1-isobutylpiperidin-4-yl)piperazin-1-yl)-3-methyl-H-indol-2-yl)-1H-pyrrolo[2,3-b]pyridine], the concentration for half-maximal inhibition (IC50) came to 12500 nM on human TLR7, 198 nM at human TLR9 and 45400 nM against human TLR8.
Consider `COc1ccc(-c2[nH]c3ccc(N4CCC(C)(N5CCOCC5)CC4)cc3c2C(C)C)cc1OC` [Example 117, 4-(1-(2-(3,4-dimethoxyphenyl)-3-isopropyl-H-indol-5-yl)-4-methylpiperidin-4-yl)morpholine], for which the results for the IC50 against human TLR7, on human TLR9 and on human TLR8 were 188 nM, 5050 nM and 5.3 nM, respectively.
For `COc1ccc(-c2[nH]c3ccc(NC(=O)[C@@H](N)C4CCCCC4)cc3c2C(C)C)cc1OC` [Example 26, (S)-2-amino-2-cyclohexyl-N-(2-(3,4-dimethoxyphenyl)-3-isopropyl-1H-indol-5-yl)acetamide] the same measures were 1180 nM, 11300 nM and 194 nM.
